Results taken from patent EP1543832A2, “Use of trans-4[4-(3-chloro-4-methoxy-benzylamino) benzothieno[2,3-d]pyrimidin-2-yl]-cyclohexanecarboxylic acid in the treatment of extrapyramidal movement disorders” (MERCK PATENT GmbH, priority 2003, dated 2005).

How the values were obtained:
[1] = system: Campus Syndrome in the Pietrain pig; test: Campus Syndrome tremor model, accelerometric recording; assay type: in vivo
Description: Typical genetic models in mutant animals are the Campus Syndrome in the Pietrain pig according to A. Richter et al. (Exp. Neurology, 1995; 134: 205-213) or the Weaver mutant mouse according to J.R. Simon and B. Ghetti (Mol. Neurobiol., 1994; 9: 183-189). In the Campus Syndrome model, these mutant pigs show a high-frequency tremor when standing and during locomotion, but not while lying at rest. Assessment of tremor is made by accelerometric recording. In the Weaver mutant mouse, degenerative cerebellar atrophy is fould in association with tremor, gait instability, and toppling over the sides after a few steps.
Trans-4-[4-(3-chloro-4-methoxybenzylamino)-benzothieno-[2,3-d]pyrimidin-2-yl]cyclohexanecarboxylic acid or a physiologically acceptable salt thereof improve the Campus Syndrome in the Pietrain pig, i.e. reduce disabling tremor when standing and during locomotion, and enhance locomotor activity in the Weaver mutant mouse.

[2] = system: striatonigral degeneration approach in the rat; test: Striatonigral degeneration model (6-hydroxydopamine plus quinolinic acid), turning behavior; assay type: in vivo; settings: automated recorder
Description: Another more recent animal model is the striatonigral degeneration approach in the rat according to G.K. Wenning et al., J. Neural Transm. Suppl., 1999; 55: 103-113. Rats receive an unilateral injection of 6-hydroxydopamine into the left medial forebrain bundle followed by an injection of quinolinic acid into the ipsilateral striatum inducing nigrostriatal degeneration. The degeneration results in turning behavior to a challenge with dopaminomimetics such as apomorphine or amphetamine. Turning behavior is measured by an automated recorder.

[3] = system: neuroleptics sensitized monkey; test: Neuroleptics sensitized monkey, haloperidol challenge; assay type: in vivo; settings: given after haloperidol challenge; scoring system
Description: Another typical animal model is the neuroleptics sensitized monkey according to D.E. Casey, Psychopharmacology, 1996; 124: 134-140. Monkeys treated repeatedly with conventional neuroleptics are highly sensitive to a subsequent challenge dose of neuroleptic drugs. When challenged, the monkeys immediately show extrapyramidal motor side effects such as dystonia, dyskinesias, akathisia, and bradykinesia which are rated by a scoring system. The conventional neuroleptic drug haloperidol is given as a challenge.

posthypoxic myoclonus = test: Posthypoxic myoclonus after cardiac arrest; assay type: in vivo; settings: rats resuscitated after cardiac arrest for 8 minutes
Protocol: A typical animal model for myoclonus is myoclonus induced by an acute hypoxic episode according to D.D. Truong et al., Mov. Dsiord., 1994; 9: 201-206). In this model of posthypoxic myoclonus, rats undergo a cardiac arrest for 8 minutes and are resuscitated thereafter. Myoclonic jerks occur spontaneously but can be provoked by auditory stimulation, too, worsening over the days following cardiac arrest.

[4] = system: catalepsy induced by conventional antidopaminergic drugs; test: Catalepsy induced by conventional antidopaminergic drugs such as haloperidol; settings: rat, in vivo
Protocol: (§1) Extrapyramidal motor side effects in e.g. rodents are measured by the ability of a drug to induce catalepsy. Catalepsy is defined as a state where an animal continues to remain in an unnormal (nonphysiological 'uncomfortable') posture for a long time (e.g.: M.E. Stanley and S.D. Glick, Neuropharmacology, 1996; 15: 393-394; C.J.E. Niemegeers and P. Janssen, Life Sci., 1979, […]). For example, if a hindpaw of a rat is placed on an elevated level, e.g. a platform elevated 3 cm above ground level, a normal rat immediately withdraws the hindpaw from the platform to the ground level. A cataleptic rat remains in this unnatural posture even for minutes.

[5] = system: Parkinsonian cynomolgus monkey; test: Adverse effects of long-term l-dopa treatment in the MPTP Parkinsonian cynomolgus monkey; assay type: in vivo; settings: MPTP monkeys chronically treated with l-dopa
Protocol: Treatment of adverse effects of conventional anti-Parkinsonian drugs as defined above are determined in a modification of the animal model of the Parkinsonian cynomolgus monkey according to P.J. Blanchet et al., Exp. Neurology 1998; 153: 214-222. Monkeys render parkinsonian by repeated injections of 1-methyl-4-phenyl-1,2,3,6-tetrahydropyridine (MPTP). The Parkinsonian monkeys are chronically treated with the standard I-dopa therapy according to P.J. Blanchet et al., Mov. Disord., 1998; 13: 798-802. Longterm treatment with I-dopa induces extrapyramidal motor side effects and psychotic states which are both qualitatively and quantitatively, assessed by the Abnormal Involuntary Movement Scale (P.J. Blanchet et al., Mov. Disord. 1998; 13: 798-802) for different body parts (face, neck, trunk, each limb) and by rating for psychotic states by observing the monkey's attention, reactivity and mobility. Trans-4-[4-(3-chloro-4-methoxybenzylamino)-benzothieno-[2,3-d]pyrimidin-2-yl]cyclohexane-carboxylic acid reduced overall choreiform dyskinesias and dystonic dyskinesias as well as psychotic states.

mutant dystonic hamster = test: Mutant dystonic hamster, scored dystonic attacks; assay type: in vivo; settings: scoring system
Description: A typical animal model is the mutant dystonic hamster according to A. Richter and W. Löscher, Prog. Neurobiol. 1998; 54: 633-677. In this genetically dystonic hamsters, dystonic attacks are provoked by taking the animal from the home cage and placing it on a balance. The dystonic syndrome consists of a sequence of abnormal movements, and the severity of the single symptoms is rated by a scoring system.

catalepsy = test: Ability of a drug to induce catalepsy (extrapyramidal motor side effects); assay type: in vivo, rat; settings: measured in e.g. rodents by the ability of a drug to induce catalepsy
Protocol: as §1

[6] = Abnormal Involuntary Movement Scale

COc1ccc(CNc2nc([C@H]3CC[C@H](C(=O)O)CC3)nc3sc4ccccc4c23)cc1Cl [trans-4-[4-(3-chloro-4-methoxybenzylamino)-benzothieno-[2,3-d]pyrimidin-2-yl]cyclohexanecarboxylic acid]
disabling tremor when standing and during locomotion [1]: reduce | Turning behavior induced by apomorphine or amphetamine [2]: dose-dependently antagonized | extrapyramidal motor side effects [3]: dose-dependently reduce | number of spontaneous and autitory-evoked myoclonic jerks (posthypoxic myoclonus): dose-dependently reduce | prevention of catalepsy induced by conventional antidopaminergic drugs [4]: able to prevent catalepsy | reversal of already existing catalepsy induced by conventional antidopaminergic drugs such as haloperidol [4]: reverses already existing catalepsy | dystonic dyskinesias [5, 6]: reduced | overall choreiform dyskinesias [5, 6]: reduced | psychotic states ([5]; rating of attention, reactivity and mobility): reduced | severity of dystonic symptoms (mutant dystonic hamster): dose-dependently reduce | liability to induce extrapyramidal side effects (catalepsy): extremely low liability to induce extrapyramidal side effects
